Earlier results in US7193101B2, “Esters with antimicrobial, bioresistant and fungal resistant properties” (TPAT IP, priority 2004, dated 2007).

Assays:
nematodes = conditions: prior art U.S. Pat. No. 5,013,762
[1] = prior art U.S. Pat. No. 5,866,511
[2] = test system: various strains of both gram positive and gram negative bacteria

| Compound | effectiveness for the treatment of nematodes in the soil (nematodes) | effectiveness as a general biocide [1] | average minimum inhibitory concentration ([2]; average over gram positive and gram negative strains) | effective concentration against bacteria ([2]; various strains of gram positive and gram negative bacteria) | antifungal activity (fungi) |
| --- | --- | --- | --- | --- | --- |
| O=[N+]([O-])CBr [bromonitromethane] | effective | effective | – | – | – |
| O=[N+]([O-])C(Br)(CO)CO [BNPD, 2-bromo-2-nitro-propane-1,3-diol] | – | – | around 25 ppm | 1–50 ppm | antifungal |
